# Experimental data: US20230137849A1, “USE OF A COMPOUND OF THE DIURETICS CLASS FOR TREATING CANCER” (AZELEAD, priority 2017, published 2023)
# Legend:
# N-CADHERIN = experiment: q-RT-PCR expression of EMT markers in MDA-MB-231 cells under hypoxia: N-CADHERIN; type: cell-based, human; details: althiazide 100 μM, hypoxic conditions (1% O2), vs control, FIG. 11
# Method: The cell cultures are carried out on human breast cancer epithelial cell lines MDA-MB-231 (HTB-26™), resulting from metastases present in a pleural effusion of a patient with a mammary adenocarcinoma. This line is used as a triple negative cancer cell model (no expression of ER-type nuclear estrogen receptors, nuclear progesterone receptors or overexpression of the oncogene encoding HER2 protein (Human Epidermal Growth factor Receptor-2).
# The cells were cultured in DMEM medium (Eurobio, Fance) supplemented with 10% fetal calf serum (FCS) (Eurobio, Fance) at 37° C., 5% CO2. The medium was changed every 3 days.
# The cells were placed in a controlled atmosphere at 1% oxygen 24 hours before the application of the different treatments.
# The expression of the mRNAs is measured by the q-RT-PCR method. The cells were seeded at the density of 500,000 cells/well in 6-well plates. After 24 hours at 37° C., 5% CO2 and 1% O2, the medium was renewed and added the various treatments. RNA was isolated using TRI Reagent® (sigma), assayed and retro-transcribed into complementary DNA using the PrimeScript RT Reagent Kit (Takara). The expression levels of the mRNA of the genes of interest were determined by quantitative PCR (LightCycler® 480 Instrument II) with the primers listed in Table 2: […]
# The results are calculated using the Delta Delta Ct (Δ ΔCt) method.
# [1] = Solubilization of althiazide and enantiomers without DMSO; type: physicochemical; details: no DMSO
# Method: Solubilization of althiazide and enantiomers was achieved by solubilization in a solvent of 95% 1M Tris pH 10.8 and supplemented with 5% pure ethanol.
# Althiazide and enantiomers are resuspended at a concentration of 2 mg/ml. Each of the solutions is vortexed for 30 seconds and then placed in an ultrasound bath for a sonication of 5min; this operation is repeated once. The dissolution is complete despite the absence of DMSO.
# The solubilization of althiazide and enantiomers was also obtained by solubilization in a solution consisting of a mixture of 3.7% of NaHCO3, 0.2M and 21% of Na2CO3 0.2M at pH 10.6 and supplemented with pure water. Althiazide and enantiomers are resuspended at a concentration of 2.5 mg/ml. Each of the solutions is vortexed for 30 seconds and then placed in an ultrasound bath for a sonication of 1 min. The dissolution is complete despite the absence of DMSO.
# [2] = test system: hematopoietic stem cells CD41:GFP accumulated in the AGM; experiment: Zebrafish embryo test: HSC accumulated in the AGM (initiation of the metastatic process); type: in vivo; details: althiazide 10 μM (FIG. 2; b187 prints 10 μl), embryos 25 hpf treated 24 h, vs DMSO
# Text: A method for determining whether a molecule is capable of treating cancer in the pre-metastatic state has been described in international application WO 2011/007259. This method consists in isolating molecules capable of inhibiting the emergence of hematopoietic stem cells from the floor of the aorta without cell division, but by endothelial-to-hematopoietic transition. This emergence involves the loss of cell polarity of emerging cells, the loss of cellular junctions with these neighboring cells and the acquisition of migratory properties. This model is used because it mimics each stage of the epithelial-mesenchymal transition, the first stage of cancer metastasis. The endothelial-to-hematopoietic transition takes place in a region of the embryo called Aorta-Gonad-Mesonephros (AGM).
# In order to evaluate the inhibition of the endothelial-to-hematopoietic transition, transgenic CD41:GFP (green fluorescent protein) embryos are used. HSCs express GFP under the control of the CD41 promoter, which allows them to be monitored in vivo under a fluorescence microscope. The read-out is the number of hematopoietic stem cells CD41:GFP accumulated in the AGM (mimicking the initiation of the metastatic process) and/or in the CHT of the zebrafish embryo (mimicking the progression of the metastatic process). […]
smiles,measurement,setting,value
C=CCSCC1Nc2cc(Cl)c(S(N)(=O)=O)cc2S(=O)(=O)N1 (racemic) [althiazide],change in expression of N-CADHERIN,N-CADHERIN,−33%
same,dissolution,"[1]; 2 mg/ml in 95% 1M Tris pH 10.8 + 5% pure ethanol, vortex and sonication",complete
same,dissolution,[1]; 2.5 mg/ml in 3.7% NaHCO3 0.2M + 21% Na2CO3 0.2M at pH 10.6 and pure water,complete
same,number of HSC accumulated in the AGM compared with reference embryos; local migration of HSC,[2],greater
same,number of HSC accumulated in the AGM compared with reference embryos; local migration of HSC,[2]; listed as thiazide,reduction of the junction loss and the local migration of HSC
